Test results reported in ChEMBL document CHEMBL4825673, “Total and Semisyntheses of Polymyxin Analogues with 2-Thr or 10-Thr Modifications to Decipher the Structure-Activity Relationship and Improve the Antibacterial Activity” (J Med Chem, 2021).
≈ marks a conversion by molar mass, not a printed value.

Key:
Format in all cases: functional
Conditions in all cases: read-out: MIC100
[1] = tested on: Pseudomonas aeruginosa; assay: Antibacterial activity against Pseudomonas aeruginosa PAO1 assessed as inhibition of bacterial growth incubated for 24 hrs by broth microdilution method
[2] = tested on: Escherichia coli; assay: Antibacterial activity against Escherichia coli assessed as inhibition of bacterial growth incubated for 24 hrs by broth microdilution method
[3] = tested on: Klebsiella pneumoniae; assay: Antibacterial activity against Klebsiella pneumoniae assessed as inhibition of bacterial growth incubated for 24 hrs by broth microdilution method
[4] = tested on: Acinetobacter baumannii; assay: Antibacterial activity against Acinetobacter baumannii assessed as inhibition of bacterial growth incubated for 24 hrs by broth microdilution method
[5] = tested on: Pseudomonas aeruginosa; assay: Antibacterial activity against Pseudomonas aeruginosa assessed as inhibition of bacterial growth incubated for 24 hrs by broth microdilution method
[6] = tested on: Moraxella catarrhalis; assay: Antibacterial activity against Moraxella catarrhalis assessed as inhibition of bacterial growth incubated for 24 hrs by broth microdilution method

Row | SMILES | MIC [1] [µg/mL] | MIC [2] [µg/mL] | MIC [3] [µg/mL] | MIC [4] [µg/mL] | MIC [5] [µg/mL] | MIC [6] [µg/mL]
1 | CC(C)CCCCC(=O)N[C@@H](CCN)C(=O)N[C@H](C(=O)N[C@@H](CCN)C(=O)N[C@H]1CCNC(=O)[C@H]([C@@H](C)O)NC(=O)[C@H](CCN)NC(=O)[C@H](CCN)NC(=O)[C@H](CC(C)C)NC(=O)[C@@H](Cc2ccccc2)NC(=O)[C@H](CCN)NC1=O)[C@@H](C)OC(=O)[C@@H](N)CC(C)C | 4 (≈ 3.07 µM) | 0.25 (≈ 0.192 µM) | 1 (≈ 0.768 µM) | 0.06 (≈ 0.0461 µM) | 0.125 (≈ 0.096 µM) | > 16
2 | CC(C)CCCCC(=O)N[C@@H](CCN)C(=O)N[C@H](C(=O)N[C@@H](CCN)C(=O)N[C@H]1CCNC(=O)[C@H]([C@@H](C)OC(=O)CN)NC(=O)[C@H](CCN)NC(=O)[C@H](CCN)NC(=O)[C@H](CC(C)C)NC(=O)[C@@H](Cc2ccccc2)NC(=O)[C@H](CCN)NC1=O)[C@@H](C)OC(=O)CN | 1 (≈ 0.767 µM) | 0.25 (≈ 0.192 µM) | 1 (≈ 0.767 µM) | 0.125 (≈ 0.0959 µM) | 0.25 (≈ 0.192 µM) | > 64
3 | CC(C)CCCCC(=O)N[C@@H](CCN)C(=O)N[C@H](C(=O)N[C@@H](CCN)C(=O)N[C@H]1CCNC(=O)[C@H]([C@@H](C)O)NC(=O)[C@H](CCN)NC(=O)[C@H](CCN)NC(=O)[C@H](CC(C)C)NC(=O)[C@@H](Cc2ccccc2)NC(=O)[C@H](CCN)NC1=O)[C@@H](C)OC(=O)[C@@H](N)CO | 1 (≈ 0.783 µM) | 0.25 (≈ 0.196 µM) | 1 (≈ 0.783 µM) | 0.125 (≈ 0.0979 µM) | 0.25 (≈ 0.196 µM) | 32 (≈ 25.1 µM)
4 | CC[C@H](C)CCCCC(=O)N[C@@H](CCN)C(=O)N[C@H](C(=O)N[C@@H](CCN)C(=O)N[C@H]1CCNC(=O)[C@H]([C@@H](C)O)NC(=O)[C@H](CCN)NC(=O)[C@H](CCN)NC(=O)[C@H](CC(C)C)NC(=O)[C@@H](Cc2ccccc2)NC(=O)[C@H](CCN)NC1=O)[C@@H](C)OC(=O)CN | 4 (≈ 3.17 µM) | 0.25 (≈ 0.198 µM) | 0.5 (≈ 0.397 µM) | 0.125 (≈ 0.0992 µM) | 0.125 (≈ 0.0992 µM) | > 64
5 | CCCCCCCC(=O)N[C@@H](CCN)C(=O)N[C@H](C(=O)N[C@@H](CCN)C(=O)N[C@H]1CCNC(=O)[C@H](CS)NC(=O)[C@H](CCN)NC(=O)[C@H](CCN)NC(=O)[C@H](CC(C)C)NC(=O)[C@@H](Cc2ccccc2)NC(=O)[C@H](CCN)NC1=O)[C@@H](C)O | 2 (≈ 1.68 µM) | 2 (≈ 1.68 µM) | 2 (≈ 1.68 µM) | 0.25 (≈ 0.21 µM) | 0.06 (≈ 0.0504 µM) | 4 (≈ 3.36 µM)
6 | CC(C)CCCCC(=O)N[C@@H](CCN)C(=O)N[C@H](C(=O)N[C@@H](CCN)C(=O)N[C@H]1CCNC(=O)[C@H]([C@@H](C)O)NC(=O)[C@H](CCN)NC(=O)[C@H](CCN)NC(=O)[C@H](CC(C)C)NC(=O)[C@@H](Cc2ccccc2)NC(=O)[C@H](CCN)NC1=O)[C@@H](C)OC(=O)CN | 2 (≈ 1.6 µM) | 0.25 (≈ 0.201 µM) | 1 (≈ 0.802 µM) | 0.06 (≈ 0.0481 µM) | 0.25 (≈ 0.201 µM) | > 16

Continued by falling MIC [1], values first:

Row | MIC [1] [µg/mL] | MIC [2] [µg/mL] | MIC [3] [µg/mL] | MIC [4] [µg/mL] | MIC [5] [µg/mL] | MIC [6] [µg/mL] | SMILES
7 | 2 (≈ 1.52 µM) | 0.5 (≈ 0.379 µM) | 4 (≈ 3.04 µM) | 0.125 (≈ 0.0949 µM) | 0.25 (≈ 0.19 µM) | > 64 | CC(C)CCCCC(=O)N[C@@H](CCN)C(=O)N[C@H](C(=O)N[C@@H](CCN)C(=O)N[C@H]1CCNC(=O)[C@H]([C@@H](C)O)NC(=O)[C@H](CCN)NC(=O)[C@H](CCN)NC(=O)[C@H](CC(C)C)NC(=O)[C@@H](Cc2ccccc2)NC(=O)[C@H](CCN)NC1=O)[C@@H](C)OC(=O)[C@@H](N)CCCCN
8 | 2 (≈ 1.51 µM) | 0.5 (≈ 0.377 µM) | 4 (≈ 3.02 µM) | 0.125 (≈ 0.0942 µM) | 0.5 (≈ 0.377 µM) | 8 (≈ 6.03 µM) | CC(C)CCCCC(=O)N[C@@H](CCN)C(=O)N[C@H](C(=O)N[C@@H](CCN)C(=O)N[C@H]1CCNC(=O)[C@H]([C@@H](C)O)NC(=O)[C@H](CCN)NC(=O)[C@H](CCN)NC(=O)[C@H](CC(C)C)NC(=O)[C@@H](Cc2ccccc2)NC(=O)[C@H](CCN)NC1=O)[C@@H](C)OC(=O)[C@@H](N)Cc1c[nH]cn1
9 | 2 (≈ 1.49 µM) | 0.5 (≈ 0.372 µM) | 1 (≈ 0.743 µM) | 0.25 (≈ 0.186 µM) | 0.5 (≈ 0.372 µM) | > 16 | CC(C)CCCCC(=O)N[C@@H](CCN)C(=O)N[C@H](C(=O)N[C@@H](CCN)C(=O)N[C@H]1CCNC(=O)[C@H]([C@@H](C)O)NC(=O)[C@H](CCN)NC(=O)[C@H](CCN)NC(=O)[C@H](CC(C)C)NC(=O)[C@@H](Cc2ccccc2)NC(=O)[C@H](CCN)NC1=O)[C@@H](C)OC(=O)[C@@H](N)CCCNC(=N)N
10 | 2 (≈ 1.55 µM) | 0.5 (≈ 0.388 µM) | 4 (≈ 3.1 µM) | 1 (≈ 0.776 µM) | 0.5 (≈ 0.388 µM) | > 32 | CC(C)CCCCC(=O)N[C@@H](CCN)C(=O)N[C@H](C(=O)N[C@@H](CCN)C(=O)N[C@H]1CCNC(=O)[C@H]([C@@H](C)O)NC(=O)[C@H](CCN)NC(=O)[C@H](CCN)NC(=O)[C@H](CC(C)C)NC(=O)[C@@H](Cc2ccccc2)NC(=O)[C@H](CCN)NC1=O)[C@@H](C)OC(=O)[C@@H](N)C(C)C
